In patent US20150105252A1, “SUBSTITUTED PYRAZOLES AS HERBICIDES” (E I DU PONT DE NEMOURS AND COMPANY, priority 2013, published 2015):

Assays:
Test in all cases: Test F preemergence
[1] = system: corn; assay type: in vivo, Zea mays
Text: (§1) Seeds of plant species selected from corn (Zea mays), soybean (Glycine max), velvetleaf (Abutilon theophrasti), lambsquarters (Chenopodium album), wild poinsettia (Euphorbia heterophylla), pigweed, palmer (palmer pigweed, Amaranthus palmeri), common waterhemp (Amaranthus rudis), surinam grass (Brachiaria decumbens), large crabgrass (Digitaria sanguinalis), crabgrass, Brazil (Brazilian crabgrass, Digitaria horizontalis), fall panicum (Panicum dichotomiflorum), giant foxtail (Setaria faberii), green foxtail (Setaria viridis), goosegrass (Eleusine indica), johnsongrass (Sorghum halepense), common ragweed (Ambrosia elation), barnyardgrass (Echinochloa crus-galli), southern sandbur (Cenchrus echinatus), arrowleaf sida (Sida rhombifolia), Italian ryegrass (Lolium multiflorum), dayflower, VA (Virginia (VA) dayflower, Commelina virginica), field bindweed (Convolvulus arvensis), cocklebur (common cocklebur, Xanthium strumarium), morningglory (Ipomoea coccinea), nightshade (eastern black nightshade, Solanum ptycanthum), kochia (Kochia scoparia), yellow nutsedge (Cyperus esculentus), and hairy beggarticks (Bidens pilosa), were planted into a silt loam soil and treated preemergence with test chemicals formulated in a non-phytotoxic solvent mixture which included a surfactant.
(§2) At the same time, plants from these crop and weed species and also horseweed (Canada horseweed, Conyza canadensis), smartweed (ladysthumb smartweed, Polygonum persicaria), waterhemp_RES1, (ALS & Triazine resistant common waterhemp, Amaranthus rudis), and waterhemp_RES2, (ALS & HPPD resistant common waterhemp, Amaranthus rudis) were treated with postemergence applications of test chemicals formulated in the same manner. Plants ranged in height from 2 to 18 cm for postemergence treatments (1- to 4-leaf stage). Treated plants and controls were maintained in a greenhouse for 14 to 21 days, after which time all species were compared to controls and visually evaluated. Plant response ratings, summarized in Table F, are based on a scale of 0 to 100 where 0 is no effect and 100 is complete control. A dash (-) response means no test result.

[2] = system: fall panicum; assay type: in vivo, Panicum dichotomiflorum
Text: as §1, §2

[3] = system: green foxtail; assay type: in vivo, Setaria viridis
Text: as §1, §2

[4] = system: common ragweed; assay type: in vivo, Ambrosia elation
Text: as §1, §2

[5] = system: arrowleaf sida; assay type: in vivo, Sida rhombifolia
Text: as §1, §2

[6] = system: field bindweed; assay type: in vivo, Convolvulus arvensis
Text: as §1, §2

[7] = Preemergence, 31 g ai/ha, scale 0 to 100
[8] = Preemergence, 62 g ai/ha, scale 0 to 100
[9] = Preemergence, 125 g ai/ha, scale 0 to 100
[10] = preemergence, 8 g ai/ha, scale 0 to 100, 100 is complete control
[11] = preemergence, 16 g ai/ha, scale 0 to 100, 100 is complete control
[12] = Preemergence, 16 g ai/ha, scale 0 to 100
[13] = Preemergence, 250 g ai/ha, scale 0 to 100

SMILES | Plant response rating, Corn [1, 8] | Plant response rating, Corn [1, 9] | Plant response rating, Corn [1, 10] | Plant response rating, Corn [1, 11] | Plant response rating, Fall Panicum [2, 8] | Plant response rating, Fall Panicum [2, 9] | Plant response rating, Fall Panicum [2, 10] | Plant response rating, Fall Panicum [2, 11] | Plant response rating, Green Foxtail [3, 8] | Plant response rating, Green Foxtail [3, 9] | Plant response rating, Green Foxtail [3, 10] | Plant response rating, Green Foxtail [3, 11] | Plant response rating, Common Ragweed [4, 8] | Plant response rating, Common Ragweed [4, 9] | Plant response rating, Common Ragweed [4, 10] | Plant response rating, Common Ragweed [4, 11] | Plant response rating, Arrowleaf Sida [5, 8] | Plant response rating, Arrowleaf Sida [5, 9] | Plant response rating, Field Bindweed [6, 8] | Plant response rating, Field Bindweed [6, 9] | also measured
CCOc1cc(C(=O)NCC(F)(F)F)nn1Cc1ccnc(C(F)(F)F)c1 [Compound 104] | 50 | 60 | 0 | 0 | 100 | 100 | 15 | 85 | 100 | 100 | 5 | 60 | 100 | 100 | 0 | 0 | 20 | 30 | 50 | 95 | Plant response rating, Corn [1, 7]: 30; Plant response rating, Fall Panicum [2, 7]: 90; Plant response rating, Green Foxtail [3, 7]: 100; Plant response rating, Common Ragweed [4, 7]: 95; Plant response rating, Arrowleaf Sida [5, 7]: 10; Plant response rating, Arrowleaf Sida [5, 10]: 0; Plant response rating, Arrowleaf Sida [5, 11]: 0; Plant response rating, Field Bindweed [6, 7]: 30; Plant response rating, Field Bindweed [6, 10]: 0; Plant response rating, Field Bindweed [6, 11]: 10
CCNC(=O)c1cc(CCCl)n(Cc2ccnc(C(F)(F)F)c2)n1 [Compound 179] | 30 | 30 | 0 | – | 70 | 98 | 0 | – | 20 | 70 | 0 | – | 65 | 80 | 0 | – | 0 | 35 | 50 | 75 | Plant response rating, Corn [1, 7]: 20; Plant response rating, Fall Panicum [2, 7]: 35; Plant response rating, Green Foxtail [3, 7]: 20; Plant response rating, Common Ragweed [4, 7]: 40; Plant response rating, Arrowleaf Sida [5, 7]: 0; Plant response rating, Arrowleaf Sida [5, 10]: 0; Plant response rating, Field Bindweed [6, 7]: 5; Plant response rating, Field Bindweed [6, 10]: 0
CCNC(=O)c1cc(CC)n(Cc2ccnc(C(F)(F)F)c2)n1 [Compound 196] | 0 | 25 | 0 | 0 | 98 | 100 | 0 | 0 | 75 | 100 | 0 | 0 | 70 | 90 | 0 | 30 | 5 | 70 | 75 | 85 | Plant response rating, Fall Panicum [2, 12]: 90; Plant response rating, Common Ragweed [4, 12]: 65; Plant response rating, Arrowleaf Sida [5, 12]: 0; Plant response rating, Arrowleaf Sida [5, 10]: 0; Plant response rating, Arrowleaf Sida [5, 11]: 0; Plant response rating, Field Bindweed [6, 12]: 20; Plant response rating, Field Bindweed [6, 10]: 5; Plant response rating, Field Bindweed [6, 11]: 10
Cc1cc(C(=O)NC(C)C)nn1Cc1ccnc(C(F)(F)F)c1 [Compound 197] | 0 | 20 | 0 | 0 | 70 | 98 | 0 | 0 | 35 | 65 | 0 | 0 | 40 | 80 | 0 | 0 | 5 | 10 | 50 | 80 | Plant response rating, Fall Panicum [2, 12]: 0; Plant response rating, Common Ragweed [4, 12]: 35; Plant response rating, Arrowleaf Sida [5, 12]: 5; Plant response rating, Arrowleaf Sida [5, 10]: 0; Plant response rating, Arrowleaf Sida [5, 11]: 5; Plant response rating, Field Bindweed [6, 12]: 35; Plant response rating, Field Bindweed [6, 10]: 10; Plant response rating, Field Bindweed [6, 11]: 15
CCc1cc(C(=O)NC2CC2)nn1Cc1ccnc(OCC(F)(F)F)c1 [Compound 200] | 0 | 0 | – | 0 | 35 | 80 | – | 0 | 5 | 60 | – | 0 | 0 | 5 | – | 0 | 5 | 35 | 0 | 50 | Plant response rating, Corn [1, 13]: 35; Plant response rating, Fall Panicum [2, 13]: 90; Plant response rating, Fall Panicum [2, 12]: 0; Plant response rating, Green Foxtail [3, 13]: 85; Plant response rating, Common Ragweed [4, 13]: 30; Plant response rating, Common Ragweed [4, 12]: 0; Plant response rating, Arrowleaf Sida [5, 13]: 80; Plant response rating, Arrowleaf Sida [5, 12]: 0; Plant response rating, Arrowleaf Sida [5, 11]: 0; Plant response rating, Field Bindweed [6, 13]: 60; Plant response rating, Field Bindweed [6, 12]: 0; Plant response rating, Field Bindweed [6, 11]: 0
